Measured values published in patent publication US12691107B2, “Methods for the treatment and prevention of lung infections caused by gram-positive bacteria, fungus, or virus by administration of tafenoquine” (priority 2020, dated 2026).

Key:
[1] = Calculation of RLTEC and MPEC50 for tafenoquine against SARS-CoV-2; details: human, lung/whole blood; assumed to be the same as rats; read-out: Ratio of lung to whole blood concentration for humans
Method: (§1) Pneumocystis was used as a model organism against which to set minimum requirements for the maximum acceptable in vitro EC50 of tafenoquine against SARS-CoV-2 in vitro. Pneumocystis was selected because it is the only lung pathogen for which both in vitro and in vivo data are available for tafenoquine. The maximum lung tissue concentration [LTsscmaxrats] at the minimum dose of tafenoquine necessary to inhibit the growth of Pneumocystis in vivo in a treatment modality was calculated using relevant data derived from the scientific literature [see Table 7]. The ratio of that concentration to the EC50 against Pneumocystis in vitro RLTEC was determined [see Table 7]. The plasma steady state Cmax [Psscmaxhumans] at the approved prophylactic dose is known from the ARAKODA product insert [60 Degrees Pharmaceuticals. 2018. Product Insert for ARAKODA.]. The maximum steady state lung tissue concentration [LTsscmaxhumans] of that dose was determined using relevant metrics from the literature. The maximum permissible EC50 (“MPEC50”) was then defined by dividing the LTsscmaxhumans by the RLTEC [Table 7].
(§2) The steady state Cmax at the approved prophylactic dose is known based on prior modeling. The maximum steady state lung tissue concentration of that dose was estimated to be 389 microM [Table 7].
(§3) [Note: These calculated values provided in this example were recalculated and updated in the present application and therefore may differ from what is presented in some cross-referenced U.S. Provisional Applications.]

[2] = tested on: SARS-CoV-2; test: as above
Method: as §1, §2, §3

COc1cc(C)c2c(Oc3cccc(C(F)(F)F)c3)c(OC)cc(NC(C)CCCN)c2n1 (stereo not drawn) [Tafenoquine, N(4)-[2,6-Dimethoxy-4-methyl-5-[3-(trifluoromethyl)phenoxy]quinolin-8-yl]pentane-1,4-diamine]
Kp [1]: 250 | LTsscmaxhumans (maximum steady state lung tissue concentration) ([2]; approved prophylactic dose): 389 µM | LTcmaxrats (maximum lung tissue concentration) ([2]; plasma Cmax multiplied by 2.6 and 250): 23,296 ng/ml
